{
  "source": "patent US20070254941A1",
  "about": "“Subtantially pure ropinirole hydrochloride, polymorphic form of ropinirole and process for their preparation” (Glenmark Pharmaceuticals Limited, priority 2006, published 2007)",
  "origin": "cited, not measured here",
  "key": {"D2 dopamine receptor": {"target": "D2 dopamine receptor (Homo sapiens, UniProt P14416)", "sequence (P14416 whole entry)": "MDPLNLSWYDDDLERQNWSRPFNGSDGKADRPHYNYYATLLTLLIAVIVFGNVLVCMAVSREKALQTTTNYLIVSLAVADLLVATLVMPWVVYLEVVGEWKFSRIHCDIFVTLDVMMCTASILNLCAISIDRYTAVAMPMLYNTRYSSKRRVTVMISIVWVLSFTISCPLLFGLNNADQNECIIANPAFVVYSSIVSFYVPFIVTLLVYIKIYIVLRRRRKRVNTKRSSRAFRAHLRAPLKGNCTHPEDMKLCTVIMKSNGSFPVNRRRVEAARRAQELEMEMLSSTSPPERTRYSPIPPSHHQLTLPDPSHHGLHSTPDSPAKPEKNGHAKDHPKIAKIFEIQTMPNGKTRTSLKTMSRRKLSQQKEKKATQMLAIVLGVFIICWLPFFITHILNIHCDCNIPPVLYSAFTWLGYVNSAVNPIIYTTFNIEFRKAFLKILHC"}, "D3 dopamine receptor [1]": {"target": "T1, D3 dopamine receptor (Homo sapiens, UniProt P35462)", "T1 sequence (P35462 whole entry)": "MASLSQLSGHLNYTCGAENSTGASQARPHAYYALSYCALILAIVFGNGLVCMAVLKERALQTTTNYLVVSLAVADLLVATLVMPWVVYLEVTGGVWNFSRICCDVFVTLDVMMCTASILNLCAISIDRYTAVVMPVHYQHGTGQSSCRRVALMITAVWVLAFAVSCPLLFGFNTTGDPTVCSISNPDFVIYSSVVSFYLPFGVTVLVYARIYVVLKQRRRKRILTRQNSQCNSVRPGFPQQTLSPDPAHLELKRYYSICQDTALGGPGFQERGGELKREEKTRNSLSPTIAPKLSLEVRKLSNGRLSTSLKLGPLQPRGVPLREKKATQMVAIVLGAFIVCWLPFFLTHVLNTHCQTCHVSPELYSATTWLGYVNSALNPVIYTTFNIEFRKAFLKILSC", "conditions": "D3 versus D2 or D4"}, "D3 dopamine receptor [2]": {"target": "T1, D3 dopamine receptor"}},
  "note": "Counter-ions that a name gives are not always drawn.",
  "data": [
    {"smiles": "CCCN(CCC)CCc1cccc2c1CC(=O)N2", "note": "[Ropinirole hydrochloride]", "values": [
      {"measurement": "intrinsic activity at D2 dopamine receptor subtype", "setting": "D2 dopamine receptor", "result": "full intrinsic activity"},
      {"measurement": "affinity for D3 relative to D2 or D4 receptor subtypes", "setting": "D3 dopamine receptor [1]", "result": "higher affinity to D3 than to D2 or D4"},
      {"measurement": "intrinsic activity at D3 dopamine receptor subtype", "setting": "D3 dopamine receptor [2]", "result": "full intrinsic activity"}
    ]}
  ]
}
